From US9096565B2, “Inhibitors of histone deacetylase” (MethylGene Inc., priority 2007, dated 2015)

Target: one or more of HDAC-4, HDAC-5, HDAC-6, HDAC-7, HDAC-8, HDAC-9, HDAC-10 and HDAC-11
Experiment: Inhibition of histone deacetylase enzymatic activity (summary statement over isoforms)
Format: biochemical
Details: Table 3, selected examples; HDAC isoform not given
Procedure, shortened: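 Activity was measured as deacetylation of the fluorogenic substrate Boc-Lys(trifluoroacetyl)-AMC over 20-30 min at 37 °C, after a 5 min room-temperature preincubation of enzyme with compound. Trypsin (1 mg/mL) with a reference HDAC inhibitor ended the reaction.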

IC50 [µM]	SMILES
< 1	O=C(NO)C(c1ccccc1)c1ccc(OCc2cccc(OC(F)(F)F)c2)cc1 (stereo not drawn) [Compound 3-86, N-hydroxy-2-phenyl-2-(4-(3-(trifluoromethoxy)benzyloxy)phenyl)acetamide]
1 to 15	O=C(NO)C(c1ccccc1)c1cccc(OCc2cccc(OC(F)(F)F)c2)c1 (stereo not drawn) [Compound 3-87, N-hydroxy-2-phenyl-2-(3-(3-(trifluoromethoxy)benzyloxy)phenyl)acetamide]
1 to 15	CN(C)CCOc1cccc(C(C(=O)NO)c2ccccc2)c1 (stereo not drawn) [Compound 3-88, 2-(3-(2-(dimethylamino)ethoxy)phenyl)-N-hydroxy-2-phenylacetamide]
< 1	COCCOCCOc1cccc(C(C(=O)NO)c2ccccc2)c1 (stereo not drawn) [Compound 3-89, N-hydroxy-2-(3-(2-(2-methoxyethoxy)ethoxy)phenyl)-2-phenylacetamide]
< 1	COCCOCCOc1ccc(C(C(=O)NO)c2ccccc2)cc1 (stereo not drawn) [Compound 3-90, N-hydroxy-2-(4-(2-(2-methoxyethoxy)ethoxy)phenyl)-2-phenylacetamide]
< 1	O=C(NO)C(c1ccccc1)n1ccc(-c2ccccc2)c1 (stereo not drawn) [Compound 5-2, N-hydroxy-2-phenyl-2-(3-phenyl-1H-pyrrol-1-yl)acetamide]
< 1	O=C(NO)C(c1ccccc1)c1nnc(Cc2c[nH]c3ccccc23)s1 (stereo not drawn) [Compound 5-3, 2-(5-((1H-indol-3-yl)methyl)-1,3,4-thiadiazol-2-yl)-N-hydroxy-2-phenylacetamide]
< 1	O=C(NO)C(c1ccccc1)c1nnc(-c2cccs2)s1 (stereo not drawn) [Compound 5-4, N-hydroxy-2-phenyl-2-(5-(thiophen-2-yl)-1,3,4-thiadiazol-2-yl)acetamide]
< 1	CN(C)c1ccc(C(C(=O)NO)c2ccc(O)cc2)cc1 (stereo not drawn) [Compound 5-5, 2-(4-(dimethylamino)phenyl)-N-hydroxy-2-(4-hydroxyphenyl)acetamide]
1 to 15	O=C(NO)C(c1ccccc1)[S+]([O-])c1ccccc1 (stereo not drawn) [Compound 5-6, N-hydroxy-2-phenyl-2-(phenylsulfinyl)acetamide]
< 1	O=C(NO)C(c1ccccc1)N1CCN(S(=O)(=O)c2ccccc2)CC1 (stereo not drawn) [Compound 5-8, N-hydroxy-2-phenyl-2-(4-(phenylsulfonyl)piperazin-1-yl)acetamide]
< 1	COc1ccc(-c2ccc(C(C(=O)NO)c3ccccc3)cc2)cc1 (stereo not drawn) [Compound 5-9, N-hydroxy-2-(4′-methoxybiphenyl-4-yl)-2-phenylacetamide]
< 1	O=C(NO)C(c1ccccc1)c1ccc(-c2ccncc2)cc1 (stereo not drawn) [Compound 5-10, N-hydroxy-2-phenyl-2-(4-(pyridin-4-yl)phenyl)acetamide]
< 1	O=C(NO)C(c1ccccc1)N1CCN(c2ncc(-c3ccccc3)cn2)CC1 (stereo not drawn) [Compound 5-11, N-hydroxy-2-phenyl-2-(4-(5-phenylpyrimidin-2-yl)piperazin-1-yl)acetamide]
< 1	O=C(NO)C(c1ccccc1)c1ccc(-c2cccnc2)cc1 (stereo not drawn) [Compound 5-12, N-hydroxy-2-phenyl-2-(4-(pyridin-3-yl)phenyl)acetamide]
< 1	O=C(NO)C(c1ccccc1)c1ccc(-c2cccc3ccccc23)cc1 (stereo not drawn) [Compound 5-13, N-hydroxy-2-(4-(naphthalen-1-yl)phenyl)-2-phenylacetamide]
1 to 15	O=C(NO)C(Oc1ccc(-c2ccccc2)cc1)c1ccccc1 (stereo not drawn) [Compound 5-14, 2-(biphenyl-4-yloxy)-N-hydroxy-2-phenylacetamide]
< 1	O=C(NO)C(c1ccccc1)c1cccnc1 (stereo not drawn) [Compound 5-15, N-hydroxy-2-phenyl-2-(pyridin-3-yl)acetamide]
1 to 15	O=C(NO)C(c1ccccc1)N1CCc2[nH]c3ccc(F)cc3c2C1 (stereo not drawn) [Compound 5-16, 2-(8-fluoro-3,4-dihydro-1H-pyrido[4,3-b]indol-2(5H)-yl)-N-hydroxy-2-phenylacetamide]
< 1	O=C(NO)C(c1ccccc1)N1CCC(c2noc3ccc(F)cc23)CC1 (stereo not drawn) [Compound 5-18, 2-(4-(5-fluorobenzo[d]isoxazol-3-yl)piperidin-1-yl)-N-hydroxy-2-phenylacetamide]
1 to 15	O=C(NO)C(c1ccccc1)c1nnc(-c2ccccc2)s1 (stereo not drawn) [Compound 5-19, N-hydroxy-2-phenyl-2-(5-phenyl-1,3,4-thiadiazol-2-yl)acetamide]
< 1	O=C(NO)C(c1ccccc1)N1CCN(C2=Nc3ccccc3Oc3ccc(Cl)cc32)CC1 (stereo not drawn) [Compound 5-20, (E)-2-(4-(2-chlorodibenzo[b,f][1,4]oxazepin-11-yl)piperazin-1-yl)-N-hydroxy-2-phenylacetamide]
< 1	CN(C)c1ccc(-c2ccc(C(C(=O)NO)c3ccccc3)cc2)cc1 (stereo not drawn) [Compound 5-21, 2-(4′-(dimethylamino)biphenyl-4-yl)-N-hydroxy-2-phenylacetamide]

IC50 [µM]	SMILES
< 1	O=C(NO)C(c1ccccc1)c1ccc(N2CCOCC2)cc1 (stereo not drawn) [Compound 5-22, N-hydroxy-2-(4-morpholinophenyl)-2-phenylacetamide]
< 1	O=C(NO)C(c1ccccc1)c1ccc(-c2cncnc2)cc1 (stereo not drawn) [Compound 5-23, N-hydroxy-2-phenyl-2-(4-(pyrimidin-5-yl)phenyl)acetamide]
< 1	COc1ccc(C2CCN(C(C(=O)NO)c3ccccc3)CC2)cc1 (stereo not drawn) [Compound 5-24, N-hydroxy-2-(4-(4-methoxyphenyl)piperidin-1-yl)-2-phenylacetamide]
< 1	O=C(NO)C(c1ccccc1)c1ccc(N2CCN(c3ccccc3)CC2)cc1 (stereo not drawn) [Compound 5-26, N-hydroxy-2-phenyl-2-(4-(4-phenylpiperazin-1-yl)phenyl)acetamide]
< 1	O=C(NO)C(Sc1ccc2ccccc2c1)c1ccccc1 (stereo not drawn) [Compound 5-28, N-hydroxy-2-(naphthalen-2-ylthio)-2-phenylacetamide]
< 1	O=C(NO)C(c1ccccc1)c1cccc(-c2ccccc2)c1 (stereo not drawn) [Compound 5-29, 2-(biphenyl-3-yl)-N-hydroxy-2-phenylacetamide]
< 1	O=C(NO)C(c1ccccc1)c1cccc(-c2ccncc2)c1 (stereo not drawn) [Compound 5-30, N-hydroxy-2-phenyl-2-(3-(pyridin-4-yl)phenyl)acetamide]
1 to 15	O=C(NO)C1c2ccccc2CCc2ccccc21 [Compound 5-31]
1 to 15	CN(C)c1ccc(C(C(=O)NO)c2ccccc2)c2ccccc12 (stereo not drawn) [Compound 5-32, 2-(4-(dimethylamino)naphthalen-1-yl)-N-hydroxy-2-phenylacetamide]
< 1	O=C(NO)C(c1ccccc1)c1ccc(OCc2ccccc2)cc1 (stereo not drawn) [Compound 5-33, 2-(4-(benzyloxy)phenyl)-N-hydroxy-2-phenylacetamide]
< 1	O=C(NO)C(c1ccccc1)c1ccc(-c2ccc(N3CCOCC3)cc2)cc1 (stereo not drawn) [Compound 5-34, N-hydroxy-2-(4′-morpholinobiphenyl-4-yl)-2-phenylacetamide]
< 1	O=C(NO)C(c1ccccc1)N1CCC(c2nc3ccccc3o2)CC1 (stereo not drawn) [Compound 5-35, 2-(4-(benzo[d]oxazol-2-yl)piperidin-1-yl)-N-hydroxy-2-phenylacetamide]
< 1	O=C(NO)C(c1ccccc1)c1ccc(O)cc1 (stereo not drawn) [Compound 5-36, N-hydroxy-2-(4-hydroxyphenyl)-2-phenylacetamide]
< 1	O=C(NO)C(c1ccccc1)c1nnc(-c2ccc(C(F)(F)F)cc2)s1 (stereo not drawn) [Compound 5-37, N-hydroxy-2-phenyl-2-(5-(4-(trifluoromethyl)phenyl)-1,3,4-thiadiazol-2-yl)acetamide]
< 1	O=C(NO)C(c1ccccc1)c1nnc(-c2ccc3c(c2)OCO3)s1 (stereo not drawn) [Compound 5-38, 2-(5-(benzo[d][1,3]dioxol-5-yl)-1,3,4-thiadiazol-2-yl)-N-hydroxy-2-phenylacetamide]
1 to 15	O=C(NO)C(c1ccccc1)c1nnc(-c2ccccc2-c2ccccc2)s1 (stereo not drawn) [Compound 5-39, 2-(5-(biphenyl-2-yl)-1,3,4-thiadiazol-2-yl)-N-hydroxy-2-phenylacetamide]
< 1	O=C(NO)C(c1ccccc1)c1ccc(OCCN2CCOCC2)cc1 (stereo not drawn) [Compound 5-40, N-hydroxy-2-(4-(2-morpholinoethoxy)phenyl)-2-phenylacetamide]
< 1	O=C(NO)C(c1ccccc1)c1ccc(-c2ccc3[nH]ccc3c2)cc1 (stereo not drawn) [Compound 5-41, 2-(4-(1H-indol-5-yl)phenyl)-N-hydroxy-2-phenylacetamide]
1 to 15	O=C(NO)C(c1ccccc1)N1CCN(C(=O)c2ccccc2)CC1 (stereo not drawn) [Compound 5-42, 2-(4-benzoylpiperazin-1-yl)-N-hydroxy-2-phenylacetamide]
< 1	O=C(NO)C(c1ccccc1)N1CCN(c2ccc(C(F)(F)F)cc2)CC1 (stereo not drawn) [Compound 5-43, N-hydroxy-2-phenyl-2-(4-(4-(trifluoromethyl)phenyl)piperazin-1-yl)acetamide]
< 1	CCN(Cc1ccccc1)c1ccc(C(C(=O)NO)c2ccccc2)cc1 (stereo not drawn) [Compound 5-44, 2-(4-(benzyl(ethyl)amino)phenyl)-N-hydroxy-2-phenylacetamide]
< 1	Cc1cc(-c2ccc(C(C(=O)NO)c3ccccc3)cc2)ccc1F (stereo not drawn) [Compound 5-45, 2-(4′-fluoro-3′-methylbiphenyl-4-yl)-N-hydroxy-2-phenylacetamide]

SMILES	IC50 [µM]
O=C(NO)C(c1ccccc1)N1CCC(O)(c2ccccc2)CC1 (stereo not drawn) [Compound 5-1, N-hydroxy-2-(4-hydroxy-4-phenylpiperidin-1-yl)-2-phenylacetamide]	< 1
O=C(NO)C(c1ccccc1)N1CC=C(c2c[nH]c3ccccc23)CC1 (stereo not drawn) [Compound 5-7, 2-(4-(1H-indol-3-yl)-5,6-dihydropyridin-1(2H)-yl)-N-hydroxy-2-phenylacetamide]	< 1
O=C(NO)C(c1ccccc1)N1CCC(c2cn(Cc3ccccc3)c3ccccc23)CC1 (stereo not drawn) [Compound 5-17, 2-(4-(1-benzyl-1H-indol-3-yl)piperidin-1-yl)-N-hydroxy-2-phenylacetamide]	< 1
